Laboratory results: PubChem BioAssay (NCI)
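All cell lines were grown in 96-well plates and treated with compound for 48 hours. GI50: concentration for 50% inhibition of growth. Definition used: TGI = concentration required for complete inhibition of growth.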

Key:
Assay in all cases: NCI-60 cell line screen, 48 h
[1] = system: NCI-H23 lung
[2] = system: NCI-H460 lung
[3] = system: HCT-15 colon
[4] = system: SK-MEL-28 melanoma
[5] = system: UACC-257 melanoma
[6] = system: HS 578T breast
[7] = system: MALME-3M melanoma
[8] = system: RPMI-8226 leukemia
[9] = system: OVCAR-5 ovarian
[10] = system: K-562 leukemia

| Compound | TGI [1] [µM] | TGI [2] [µM] | TGI [3] [µM] | TGI [4] [µM] | TGI [5] [µM] | TGI [6] [µM] | TGI [7] [µM] | GI50 [6] [µM] | GI50 [8] [µM] | TGI [9] [µM] | GI50 [7] [µM] | GI50 [1] [µM] | GI50 [2] [µM] | GI50 [4] [µM] | GI50 [5] [µM] | TGI [8] [µM] | GI50 [9] [µM] | GI50 [10] [µM] | TGI [10] [µM] | GI50 [3] [µM] |
| --- | --- | --- | --- | --- | --- | --- | --- | --- | --- | --- | --- | --- | --- | --- | --- | --- | --- | --- | --- | --- |
| COC(=O)c1cn(CCCC(=O)O)nn1 | > 100 | > 100 | > 100 | > 100 | > 100 | > 100 | > 100 | – | – | – | – | – | – | – | – | – | – | – | – | – |
| CCCC(=O)O | > 18700 | > 18700 | > 18700 | > 18700 | – | > 18700 | > 18700 | 4950 | 473 | > 18700 | 3490 | – | – | – | – | – | – | – | – | – |
| COc1cc2c(cc1OCCCN1CCN(CCCOc3cc4c(cc3OC)C(=O)N3CCC[C@H]3C=N4)CC1)C=CC(C)(C)O2 | 3.04 | 2.32 | – | 2.83 | 3.52 | – | 3.65 | – | 0.232 | 3.18 | 1.9 | 1.53 | 1.1 | 1.51 | 1.82 | 0.699 | 1.7 | 0.32 | 1.03 | – |
| Cc1c2cc[nH]c(C(F)(F)F)c2cc2c1nc1ccccc12 | > 125 | > 125 | > 125 | > 125 | > 125 | – | > 125 | – | – | > 125 | – | – | – | – | – | > 78.9 | – | – | > 125 | – |
| C1CC2=C(C1)[Se]C(=C1Sc3nsnc3S1)[Se]2 | > 100 | > 100 | > 100 | > 100 | > 100 | > 100 | > 100 | – | – | > 100 | – | – | – | – | – | > 100 | – | – | – | – |
| Nc1nc2c(=O)c3ccccc3sc2s1 | > 100 | > 100 | > 100 | > 100 | > 100 | > 100 | – | – | – | > 100 | – | – | – | – | – | > 100 | – | – | > 100 | – |
| O=C(O)CCCl | > 5000 | > 5000 | > 5000 | > 5000 | > 5000 | – | 4970 | – | – | > 5000 | – | – | – | – | – | > 5000 | – | – | > 5000 | – |
| CC[n+]1cnc(N)c2c(-c3ccc(Cl)cc3)cn(-c3ccc(C)cc3)c21 | 35.4 | 35.8 | 32.6 | 21.2 | 6.06 | – | 25.5 | – | – | 29.7 | – | – | – | – | – | – | – | – | 20.7 | – |
| CCc1nn(CN2CCN(C)CC2)c(=S)n1/N=C\c1ccc(-c2ccc([N+](=O)[O-])cc2)o1 | > 100 | > 100 | > 100 | – | > 100 | > 100 | > 100 | – | – | > 100 | – | – | – | – | – | > 100 | – | – | > 100 | – |
| COc1ccc(Cn2c(C)nc3c2C(=O)c2ccccc2C3=O)cc1 | 16.5 | 9.74 | > 75 | > 75 | 24.7 | – | 19 | – | – | – | – | – | – | – | – | – | – | – | 30.1 | – |
| COc1cc(/C=C/C(=O)OCC23CC[C@@]4(C(=O)O)CCC(C)[C@H](C)C4C2=CCC2[C@@]4(C)CC[C@H](O)C(C)(C)C4CC[C@]23C)ccc1O (some centres not stated) | 15.6 | 27.6 | 56.3 | 85.9 | 39.4 | 17.1 | 27.5 | – | – | 46.4 | – | – | – | – | – | – | – | – | > 100 | – |
| Clc1ccc2c(SCC3CO3)c3ccccc3nc2c1 (configuration not stated) | > 100 | 20.9 | 3.34 | 21.1 | 9.3 | – | 6.39 | – | – | 10.4 | – | – | – | – | – | 7.19 | – | – | 4.43 | – |
| Cc1ccc(C2CC(=O)CC(c3ccc(C)cc3)C23C(=O)NC(=O)NC3=O)cc1 (configuration not stated) | > 100 | > 100 | > 100 | > 100 | > 100 | – | > 100 | – | – | > 100 | – | – | – | – | – | > 100 | – | – | > 100 | – |
| FC(F)(F)c1ccc(-c2nc(-c3nc4cc(Cl)c(Cl)cc4[nH]3)c3ccccn23)cc1 | > 100 | – | > 100 | – | > 100 | > 100 | > 100 | 3.99 | > 100 | > 100 | 3.56 | 6.57 | – | – | > 100 | > 100 | > 100 | > 100 | > 100 | 30.5 |
| CCOC(=O)c1ccc(N=NN(C)C(=O)C(C)N)cc1 (configuration not stated) | > 100 | > 100 | > 100 | > 100 | > 100 | – | > 100 | – | – | > 100 | – | – | – | – | – | > 100 | – | – | > 100 | – |
| CNC(=O)c1ccccc1-[s+]1c2ccccc2c(=O)n1C (configuration not stated) | > 100 | – | > 100 | > 100 | > 100 | > 100 | > 100 | – | – | > 100 | – | – | – | – | – | > 100 | – | – | > 100 | – |
| C=C1C(=O)OC2/C=C(\C)C(OC(C)=O)C3OC3C(C)(O)CC(OC(=O)/C(C)=C/C)C12 (configuration not stated) | 34.4 | 29.1 | 30.8 | 16.2 | 28.8 | – | 21 | – | – | 32.3 | – | – | – | – | – | 28.2 | – | – | 18.9 | – |
| C1=C(c2ccccc2)CN(c2ccccc2)OC1 | > 100 | > 100 | > 100 | > 100 | – | – | > 100 | – | – | > 100 | – | – | – | – | – | > 100 | – | – | > 100 | – |
| O=C(Nc1c(O)[nH]c(=S)[nH]c1=O)c1ccccn1 | > 100 | > 100 | > 100 | > 100 | > 100 | – | > 100 | – | – | > 100 | – | – | – | – | – | > 100 | – | – | > 100 | – |
| O=C(COc1ccc(OCC(=O)N2C(=O)CC(=O)N(c3ccccc3)C2=S)cc1)N1C(=O)CC(=O)N(c2ccccc2)C1=S | > 100 | > 100 | > 100 | > 100 | > 100 | – | > 100 | – | – | > 100 | – | – | – | – | – | > 100 | – | – | > 100 | – |
| c1csc(-c2ccc(-c3ccc(-c4ccc(-c5cccs5)s4)s3)s2)c1 | > 100 | > 100 | > 100 | – | > 100 | > 100 | – | – | – | > 100 | – | – | – | – | – | > 100 | – | – | > 100 | – |
